In article PMC12677843, “Multidisciplinary Preclinical Investigations on Ferrocenyl, Ruthenocenyl, and Benzyl Derivatives of Niridazole as New Drug Candidates against Schistosomiasis” (Chemmedchem, 2025):

Key:
juvenile S. mansoni = assay: In vitro drug sensitivity assay on juvenile S. mansoni; assay type: cell-based, Schistosoma mansoni; details: Schistosoma mansoni; 72 h incubation, 37 °C, 5% CO2
Description: Juvenile worms were gained through cultivation of NTS as previously described. 10 In short, NTS were obtained as described above, then directly after the mechanical transformation process the newly transformed schistosomula were placed in a special culturing medium. The culture medium consists of Panserin 401, w: L-Glutamine, serum free all-round medium (Pan Biotech, Aidenbach, Germany) supplemented with 20 % human serum and 500 U/mL penicillin, […] streptomycin (LuBioScience, Switzerland). 96-well transparent polystyrene flat bottom plates were used for the in vitro growth procedure, with 40 to 60 NTS per well in 100 µL culture medium. The bordering wells of the plate were filled solely with medium to counteract evaporation and to keep the humidity as steady as possible. The plates were incubated for 21 days at 5 % CO2 and at 37 °C, with regular medium changes every 3 to 4 days. After the 21 days culturing period, the schistosomulae developed into juveniles. For the drug sensitivity assay, juvenile worms were incubated over 72 h (5 % CO 2 and 37 °C) with the test compound in the same medium, as used for the culturing process. In a 96-well plate, 250 µL medium containing the test compound and six juvenile worms, ideally of both sexes were placed in each well. All compounds were tested twice independently at 50, 10, 5 and 1 µM in duplicates. The viability of the worms was evaluated microscopically after 24, 48 and 72 h of continuous drug exposure using the same phenotypic screening method as described before. […]

[1] = tested on: SH-SY5Y neuroblastoma cells; assay: XTT mitochondrial activity/cell viability assay, SH-SY5Y; assay type: cell-based; details: 20 µM, 24 h, serum-free media, vs DMSO control (0.2%), mean
Description: The safety profile of niridazole and its organometallic derivatives was evaluated using two different cell lines. The XTT mitochondrial activity assay reflecting cell viability was performed in the hepatocyte‐derived carcinoma cell line HUH7 and in the human neuroblastoma cell line SH‐SY5Y at 20 µM for 24 h. The SYTOX cell viability assay was subsequently performed on the SH‐SY5Y cell line, once the cell line was identified to be more sensitive to the treatment conditions.
Figure 5 XTT assay. Results of the XTT activity/viability assay are shown in A for HUH7 and B for SHSY5Y cells. […]
Additionally, 2 wells with negative controls containing only DMSO and the culture medium were included. After an incubation period of 72 h at 37 °C and 5 % CO 2, the worms were microscopically evaluated. The drug effect was determined 24, 48 and 72 h post-exposure based on the phenotype of the adult worms, using a viability scale ranging from three referring to viable, motile worms with no change in their tegument to zero standing for the death of the worms. […]
Following 24 h of incubation, 12.5 μL of an XTT/phenazine methosulfate (PMS) (XTT Sigma Aldrich cat X4626, PMS Serva CAT: 3203) 0.02solution (1 mg/mL XTT and 7.5 μg/mL PMS) was added to each well. […] Mean ± SD was determined from three independent experiments, each performed in quintuplicate. […]

## O=C1NCCN1c1ncc([N+](=O)[O-])s1 [Niridazole, niridazole]
Juvenile S. mansoni
  EC50: 1800 nM
[1]
  reduction of XTT signal in SH-SY5Y cells: no signs of toxicity
